Measurements taken from patent US10865415B2, “Prevention, diagnosis and treatment of cancer overexpressing GPR160” (Shanghai Institute of Materia Medica, Chinese Academy of …, priority 2015, dated 2020).
“Also recorded” adds a separate entry of the source.

Tests used:
Format in all cases: cell-based, human
[1] = system: LNCaP cells; assay: CCK-8 proliferation assay; conditions: infected 48 hours, cultured 1, 3 and 5 days, Scramble group = 100%
Description: (§1) To examine the effect of GPR160-specific SiRNAs on proliferation of prostate cancer cells, PC-3 and LNCaP cells, after infected by virus for 48 hours, were plated in 96-well plates at a density of 5000/100/μl/well and 2500/100 μl/well, respectively, and cultured for 1, 3, and 5 days respectively, 10 μl/well of CCK-8 detection reagent (TaKaRa) was added 4 hours before the end of culture, and light absorption at 450 nm was detected at the end of incubation. The reference wavelength was 650 nm. The reading of Scramble group was set to 100%.

[2] = system: PC-3 cells; assay: CCK-8 proliferation assay; conditions: infected 48 hours, cultured 1, 3 and 5 days, Scramble group = 100%
Description: as §1

[3] = system: LNCaP cells; assay: Colony formation, crystal violet staining; conditions: 12 to 20 days culture, versus ShGPR160-S10 control group (100%)
Description: (§2) Based on the above results, PC-3 and LNCaP cells were infected with ShGPR160-S6, ShGPR160-S7, and ShGPR160-S10 for 48 hours, and inoculated into […] at 1000/2 ml/well. After 12 to 20 days of continuous culture, the cells were stained with 0.1% crystal violet solution, dried, and the number of colonies per well counted. The group infected with ShGPR160-S10 virus was set as a 100% control.

[4] = system: PC-3 cells; assay: Colony formation, crystal violet staining; conditions: 12 to 20 days culture, versus ShGPR160-S10 control group (100%)
Description: as §2

[5] = system: GPR160 gene; assay: Quantitative RT-PCR of GPR160 expression after lentiviral shRNA infection; conditions: compared with control virus ShGPR160-S10
Source text: The total RNA of each cultured cell was extracted with Trizol reagent (Invitrogen), Oligo-dT was used as primer, and reverse transcriptase was transcribed to generate cDNA. The template and primers were mixed with SYBR detection reagents (TaKaRa) and detected by 7300 Quantitative PCR instrument. The reference gene encodes the β-actin gene ACTB (NC 000007.14).
The lentivirus shRNA expression plasmid (Cat. No. TL312662) was purchased from OriGene, in which the target gene sequence targeted by the GPR160 siRNA is shown in SEQ ID NO: 1, and the sense strand sequence of the siRNA is shown in SEQ ID NO.: 6, SEQ ID NO: 7, SEQ ID NO.: 8, SEQ ID NO: 9, respectively. The sense strand sequence of the non-specific control siRNA is shown in SEQ ID NO: 10.
The siRNA expression plasmid pGFP-C-shGPR160 and the control plasmid pGFP-C-Scramble were extracted with Qiagene plasmid extraction kit and mixed with the packaging plasmid, and then 293T cells that had been inoculated for 24 hours were transfected with MegaTran (OriGene), and the virus supernatant was collected after 72 hours. After centrifugation at 15000 rpm for 15 minutes to remove cell debris, a quarter volume of Lentivirus Concentration (Biomiga) was added for concentration, and was stored at −80° C. in aliquots. Viruses produced by transfection of pGFP-C-shGPR160 plasmid containing the sequences SEQ ID NO: 6 to SEQ ID NO: 9 were labeled as ShGPR160-S6, ShGPR160-S7, ShGPR160-S8, and ShGPR160-S9, respectively. The virus produced by transfection of the non-specific control plasmid was designated ShGPR160-S10.
PC-3 and LNCaP cells were infected with the prepared lentiviruses at multiplicity of infection (MOI) of 40 and 10, respectively. After 72 hours, the total RNA of the infected cells was extracted, and the expression of GPR160 in the cells was detected by quantitative RT-PCR.

[6] = LNCaP cells, MOI 10, 72 hours after infection
[7] = PC-3 cells, MOI 40, 72 hours after infection

Substance	effect on proliferation [1]	effect on proliferation [2]	number of clones formed [3]	number of clones formed [4]	inhibitory efficiency on GPR160 expression [5, 6]	inhibitory efficiency on GPR160 expression [5, 7]
ShGPR160-S6: Lentivirus from pGFP-C-shGPR160 plasmid; siRNA sense strand SEQ ID NO.: 6, 5′-TTGGTACAGGCTATCAGGATAACTTCCTA-3′	significantly inhibited	significantly inhibited	significantly less	significantly less	86.2%	87.8%
ShGPR160-S7: Lentivirus from pGFP-C-shGPR160 plasmid; siRNA sense strand SEQ ID NO.: 7, 5′-TTCTATGTCAGCATTCAGAGTTACTGGCT-3′	significantly inhibited	significantly inhibited	significantly less	significantly less	91.7%	85.0%
ShGPR160-S8: Lentivirus from pGFP-C-shGPR160 plasmid; siRNA sense strand SEQ ID NO.: 8, 5′-CCATCTACCAAAGCCTGAAGGCACAGAAT-3′	no inhibitory effect; also recorded: no significant effect	–	–	–	32.8%	41.7%
ShGPR160-S9: Lentivirus from pGFP-C-shGPR160 plasmid; siRNA sense strand SEQ ID NO.: 9, 5′-CCATTTGTCAACTGGAAGTGCTGCTTCAT-3′	–	–	–	–	56.2%	41.8%
